The test system of one assay is A549. The assay is described as follows: Cytotoxicity against human A549 cells by MTT assay. Type of assay: functional, cell-based. In general terms: Formazan colour is commonly taken as a measure of viable cells.
For another assay, the system named is HT-29. The assay is described as follows: Cytotoxicity against human HT-29 cells by MTT assay. It is filed as functional, cell-based.

≈ marks a conversion by molar mass, not a printed value.

A word on the IC50: it is the concentration that gives 50% inhibition. Low values mean inhibition by little substance, high ones a need for much substance. Consider `COC(=O)C(O)(c1cc2c(c3oc([C@]4(C)C[C@@H]4C)cc(=O)c13)C(=O)c1c(ccc([C@H]3C[C@](C)(N(C)C)[C@H](O[C@@H]4C[C@H](OC)[C@H](O)[C@@H](C)O4)[C@H](C)O3)c1O)C2=O)[C@H]1O[C@H](C)[C@@H](O)[C@@H](OC)[C@@H]1O` (some centres not stated) [ALTROMYCIN B], for which the values for the IC50 in the assay on A549 and in the assay with HT-29 were 4.2 µg/mL (≈ 4.55 µM) and 3.9 µg/mL (≈ 4.22 µM), respectively.
As to `CC(C)(O)[C@@H]1CC[C@@]2(C)CCC[C@@](C)(O)[C@@H]2C1`, the results for the half-maximal inhibitory concentration (IC50) in the assay with A549 and with HT-29 were 9.9 µg/mL (≈ 41.2 µM) and 12.9 µg/mL (≈ 53.7 µM), respectively.
On to `COc1cc(CC/C=C/C(=O)CCc2ccc(O)cc2)ccc1O`, for which the IC50 with A549 was found to be 5.4 µg/mL (≈ 16.5 µM); with HT-29 it was 8.2 µg/mL (≈ 25.1 µM).
For the molecule `COc1cc(C2CC(O)CC(C(O)Cc3ccc(O)cc3)O2)ccc1O` (configuration not stated), the IC50 in the assay on A549 and with HT-29 was greater than 50 µg/mL in each case.
Consider `COc1cc2ccc1Oc1cc(ccc1O)CCC(=O)CCCC2`, for which the IC50 in the assay with A549 was found to be 2.2 µg/mL (≈ 6.74 µM); in the assay on HT-29, 5.3 µg/mL (≈ 16.2 µM).
As for `COc1ccc2cc1Oc1ccc(c(O)c1OC)CCCCC(O)CC2` (configuration not stated), the IC50 with A549 was 11.5 µg/mL (≈ 32.1 µM); in the assay on HT-29, 23.9 µg/mL (≈ 66.7 µM).

These data come from ChEMBL document CHEMBL1150141, “Cytotoxic diarylheptanoids from the roots of Juglans mandshurica” (J Nat Prod, 2002).
